Test results published in patent publication US20230132366A9, “METHODS FOR TREATING DYSREGULATED LIPID METABOLISM” (DENALI THERAPEUTICS INC., priority 2018, published 2023).
Numbering of substitutions follows the chain as printed.

Columns and labels:
[1] = tested on: Trem2 KO BMDMs; assay: In vitro lipid storage assay, Nile Red staining, BMDM treated with myelin; type: cell-based, mouse
Experimental: Mouse femur and tibia bones were dissected and briefly sterilized with 70% ethanol. The bones were washed twice with HBSS, then cracked in 10 mL HBSS by mortar and pestle. The cell suspension was filtered through a 70 μm cell strainer, spun at 300×g for 5 min, and supernatant was discarded. The cell pellet was resuspended in ACK Lysing Buffer (Thermo Fisher A1049201) for 4 min at room temperature. 10 mL RPMI-1640 (Thermo Fisher)+10% Hyclone FBS (GE Healthcare)+ Penicillin-Streptomycin (Thermo Fisher) was added to stop ACK lysis, then spun 300×g 5 min, and supernatant was discarded. Cells were resuspended in RPMI culture media with 50 ng/mL murine M-CSF (Life Technologies, PMC2044), counted and diluted to 1×10^6 cells/mL, then plated on non-tissue culture treated petri dishes. Three days after seeding, fresh murine M-CSF (50 ng/mL) was added. Five days after seeding, cell culture media was aspirated and cells were washed once with PBS. Cells were resuspended in RPMI/FBS/Pen-Strep and harvested with a cell scraper. […]
For LC-MS, cells were extracted according to the protocol below. […] Lipid and filipin spots were analyzed using a spot-finding algorithm on the Harmony software supplied with the instrument. […] Cells were imaged at 63× resolution and Nile Red was quantified as total spot area (FIG. 5B) using a spot-finding algorithm on the Harmony software. […]

[2] = molecular target: T1, hTREM2 (Homo sapiens, UniProt Q9NZC2); assay: Lipid binding analysis using surface plasmon resonance, hTREM2 ECD; conditions: for Response Units at the highest analyte concentration: 30% test lipid/70% PC liposomes
T1 construct: The ecto domain (residues 19-172) of TREM2 was sub cloned in the pRK vector; secretion signal from mouse Ig kappa chain V-III (amino acids 1-20) (N); made in house; host or cells: Expi293F cells (secreted, purified from the media by Ni-NTA and SEC)
T1 sequence (Q9NZC2 19-172): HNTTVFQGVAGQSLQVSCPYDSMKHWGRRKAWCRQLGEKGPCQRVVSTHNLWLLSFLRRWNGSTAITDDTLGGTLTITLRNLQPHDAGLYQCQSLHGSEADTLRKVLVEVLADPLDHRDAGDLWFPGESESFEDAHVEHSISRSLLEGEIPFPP
Experimental: (§1) 70 molar percent DOPC (1,2-dioleoyl-sn-glycero-3-phosphocholine, Avanti Polar Lipids) and 30 molar percent of one test lipid were combined in chloroform in a glass vial and dried under a stream of N2 gas for 1-2h, or until completely dry. Test lipids included sulfatide (Avanti), POPS (Avanti), SM (Avanti), PI (Avanti), GalCer (Avanti), PE (Echelon Biosciences), and free cholesterol (Echelon Biosciences). The lipid mixture was re-suspended in HBSS (1-2 mg/mL final lipid concentration) and vortexed for 2-3 min. Subsequently, the lipid suspension was bath sonicated for 10 minutes. For surface plasmon resonance experiments, liposomes were extruded 10 times using an Avanti mini-extruder constructed with one 100 nm pore size membrane to form small unilamellar vesicles.
The ecto domain (residues 19-172) of TREM2 was sub cloned in the pRK vector with the secretion signal from mouse Ig kappa chain V-III, amino acids 1-20 at the N-terminal region and a 6×-His tag at the C-terminal region. Expi293F™ cells were transfected using the Expi293™ M Expression System Kit according to the manufacturer's instructions and the media supernatant was harvested 96 hr post transfection. Harvested media was supplemented with 1M imidazole pH 8.0 to a final concentration 10 mM, filtered, and loaded on to HisPur™ Ni-NTA Resin equilibrated with load buffer (20 mM Tris pH 8.0, 150 mM NaCl and 10 mM Imidazole). Nonspecifically bound proteins were washed with load buffer supplemented with 50 and 100 mM imidazole and TREM2 ecto domain was eluted with 20 mM Tris pH 8.0, 150 mM NaCl and 200 mM Imidazole. […] Elute fractions were analyzed by SDS PAGE and further characterized by analytical size exclusion chromatography and the intact protein mass determination.
The binding analysis was performed using Series S Sensor chip L1 and Biacore T200 instrument (GE Healthcare) at 25° C. […] Recombinant hTREM2-ECD or hTREM2-R74H-ECD proteins were diluted in PBS (0, 0.19, 0.56, 1.7, 5, and 15 μM) and injected over both flow cells for 60 seconds at 30 μl/min, and dissociation was monitored for additional 2 minutes. […]

[3] = molecular target: T2, hTREM2 R47H (Homo sapiens, UniProt Q9NZC2, R47H); assay: Lipid binding analysis using surface plasmon resonance, hTREM2 R47H ECD; conditions: for Response Units at the highest analyte concentration: 30% test lipid/70% PC liposomes; for Kd: 30% test lipid/70% PC liposomes on L1 chip, 25° C., steady-state; for faster off-rate of R47H variant vs hTREM2: SPR kinetic analysis
T2 construct: The ecto domain (residues 19-172) of TREM2 was sub cloned in the pRK vector; secretion signal from mouse Ig kappa chain V-III (amino acids 1-20) (N); made in house; host or cells: Expi293F cells (secreted, purified from the media by Ni-NTA and SEC)
T2 sequence (Q9NZC2 19-172 R47H): T1 sequence (Q9NZC2 19-172) with R29H
Experimental: as §1
The ecto domain (residues 19-172) of TREM2 was sub cloned in the pRK vector with the secretion signal from mouse Ig kappa chain V-III, amino acids 1-20 at the N-terminal region and a 6×-His tag at the C-terminal region. Expi293F™ cells were transfected using the Expi293™ M Expression System Kit according to the manufacturer's instructions and the media supernatant was harvested 96 hr post transfection. Harvested media was supplemented with 1M imidazole pH 8.0 to a final concentration 10 mM, filtered, and loaded on to HisPur™ Ni-NTA Resin equilibrated with load buffer (20 mM Tris pH 8.0, 150 mM NaCl and 10 mM Imidazole). Nonspecifically bound proteins were washed with load buffer supplemented with 50 and 100 mM imidazole and TREM2 ecto domain was eluted with 20 mM Tris pH 8.0, 150 mM NaCl and 200 mM Imidazole. Eluted protein was pooled and subjected to size exclusion chromatography onto a HiLoad Superdex 75 16/600 column using 1×PBS as the running buffer. Elute fractions were analyzed by SDS PAGE and further characterized by analytical size exclusion chromatography and the intact protein mass determination.
The binding analysis was performed using Series S Sensor chip L1 and Biacore T200 instrument (GE Healthcare) at 25° C. Before coating with lipids, the sensor surfaces were washed with 1 minute injection of 40 μM 3-[(3cholamidopropyl)dimethylammonio]-1-propanesulfonate (CHAPS) and 40 uM of 0-octylglucoside at a flow rate of 30 μl/min. Residual detergent on the sensor surfaces was washed away by 30 second injection of 30% ethanol. 1 mg/ml Sulfatide/DOPC or PS/DOPC small unilamellar vesicles were injected for 15 minutes at 5 μl/min over the second flow cell. First flow cell was coated with DOPC and served as a reference surface. Loosely bound vesicles were washed away with two short pulses (15 s) of 10 mM NaOH at 30 μl/min followed by injection of 0.1 mg/ml bovine serum albumin for 3 minutes to block poorly-coated surface. Recombinant hTREM2-ECD or hTREM2-R74H-ECD proteins were diluted in PBS (0, 0.19, 0.56, 1.7, 5, and 15 μM) and injected over both flow cells for 60 seconds at 30 μl/min, and dissociation was monitored for additional 2 minutes. Between each measurement the lipids surface was regenerated by injection of 10 mM NaOH. Steady-state affinities were obtained by fitting the response at equilibrium against the concentration using Biacore™ T200 Evaluation Software v3.1

[4] = molecular target: T3, TREM2 (Homo sapiens, UniProt Q9NZC2); assay: pSYK AlphaLISA in human macrophages; type: cell-based; design: a system with endogenous expression of TREM2/DAP12; endogenous in cells; host or cells: macrophages differentiated from human peripheral blood monocytes (2-5 donors); conditions: for pSYK levels, titration: liposome or oxLDL titration
T3 sequence (Q9NZC2 19-230): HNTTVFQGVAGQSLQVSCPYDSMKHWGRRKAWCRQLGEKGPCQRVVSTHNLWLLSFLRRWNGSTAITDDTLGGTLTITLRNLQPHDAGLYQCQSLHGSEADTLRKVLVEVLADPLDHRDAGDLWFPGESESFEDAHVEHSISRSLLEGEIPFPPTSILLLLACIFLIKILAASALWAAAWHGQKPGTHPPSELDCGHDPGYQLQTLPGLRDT
T3 sequence (O43914 22-113 partner): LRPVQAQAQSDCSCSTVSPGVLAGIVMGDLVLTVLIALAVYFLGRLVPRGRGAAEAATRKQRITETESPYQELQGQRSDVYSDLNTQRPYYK
Experimental: as §1
Activation of TREM2-dependent pSYK signaling was measured using a commercial AlphaLISA assay (PerkinElmer). HEK293 cells: Two days before the experiment, HEK293 cells stably overexpressing TREM2 and DAP12 were plated at 40,000 cells/well on 96 well poly-D-lysine-coated plate. Differentiated human macrophage and BMDM were plated at 100,000 cells/well on tissue-culture treated 96-well plates. Cells were washed once with HBSS, then 50 μL of liposome mixture was added per well. For competition experiments, hTREM2-ECD or TREM1-his (Novoprotein Scientific) was incubated with liposomes for 1 hour at room temperature before adding to cells. 5 μg/mL human-specific mouse anti-TREM2 (Abnova) or 15 μg/mL mouse-specific sheep anti-TREM2 (R&D Systems) was added to each experiment as a positive control with side-by-side isotype controls, 5 μg/mL mouse IgG3 (R&D Systems) and 15 μg/mL polyclonal sheep IgG (R&D Systems), respectively. The cell plate was then transferred to a 37° C. incubator for 5 minutes. The liposome solution was discarded and 40 uL lysis buffer (Cell Signaling Technologies, CST). Lysate was incubated at 4 C for 30 min, then either frozen at −80 C or immediately carried forward to the alpha-LISA assay. […] Plates were read using AlphaLISA settings on a PerkinElmer EnVision plate reader. […]

[5] = molecular target: T3, TREM2; assay: pSYK AlphaLISA in TREM2/DAP12-expressing stable HEK293 cells; type: cell-based; design: expressed in transfected cells
Experimental: as §1
HEK293 cells were transfected with a pBudCE4.1 Mammalian Expression Vector (ThermoFisher) expressing wildtype human TREM2 and DAP12, and DAP12 alone. Stable expressing clones were selected and the cell surface TREM2 expression was evaluated by flow cytometry with APC-conjugated rat-anti-human/mouse-TREM2 monoclonal (R&D MAB17291). The highest wild type TREM2 expressing clone was selected for expansion. The clones stably expressing DAP12 were analyzed by Western blot.
Activation of TREM2-dependent pSYK signaling was measured using a commercial AlphaLISA assay (PerkinElmer). HEK293 cells: Two days before the experiment, HEK293 cells stably overexpressing TREM2 and DAP12 were plated at 40,000 cells/well on 96 well poly-D-lysine-coated plate. Differentiated human macrophage and BMDM were plated at 100,000 cells/well on tissue-culture treated 96-well plates. Cells were washed once with HBSS, then 50 μL of liposome mixture was added per well. For competition experiments, hTREM2-ECD or TREM1-his (Novoprotein Scientific) was incubated with liposomes for 1 hour at room temperature before adding to cells. 5 μg/mL human-specific mouse anti-TREM2 (Abnova) or 15 μg/mL mouse-specific sheep anti-TREM2 (R&D Systems) was added to each experiment as a positive control with side-by-side isotype controls, 5 μg/mL mouse IgG3 (R&D Systems) and 15 μg/mL polyclonal sheep IgG (R&D Systems), respectively. The cell plate was then transferred to a 37° C. incubator for 5 minutes. The liposome solution was discarded and 40 uL lysis buffer (Cell Signaling Technologies, CST). Lysate was incubated at 4 C for 30 min, then either frozen at −80 C or immediately carried forward to the alpha-LISA assay. Lysates were assayed using the standard protocol for the PerkinElmer pSYK AlphaLISA kit. 10 μL of lysate/well was transferred to a white opaque 384 well Optiplate (PerkinElmer). 5 μL of Acceptor Mix (containing the working solution of acceptor beads) was added per well followed by sealing of plates with foil seals and incubation 1 hour at room temperature. 5 μL of Donor Mix (containing the working solution of donor beads) was added to each well under reduced light conditions. Plates were again sealed and incubated 1 hour at room temperature. Plates were read using AlphaLISA settings on a PerkinElmer EnVision plate reader.

Compound | neutral lipid accumulation (Nile Red) ([1]; myelin debris 25 ug/mL 48 h, co-treatment 10 uM) | neutral lipid accumulation (Nile Red, total spot area) ([1]; myelin 25 ug/mL 24 h, then APOE3 10 ug/mL 24 h) | Response Units at the highest analyte concentration [2] [RU] | Response Units at the highest analyte concentration [3] [RU] | Kd [3] [µM] | faster off-rate of R47H variant vs hTREM2 [3] [fold] | pSYK levels, titration [4] | Kd ([2]; 30% test lipid/70% PC liposomes on L1 chip, 25° C., steady-state) [µM] | binding to and signaling via TREM2 (overall conclusion) ([5]; conclusion from pSYK and SPR studies) | pSYK levels ([5]; liposomes 30% test lipid/70% PC, or oxLDL, vs DAP12-only cells and buffer control) | pSYK increase with recombinant TREM2 ECD competition ([4]; 3 μM recombinant TREM2-ECD)
C=C(c1ccc(C(=O)O)cc1)c1cc2c(cc1C)C(C)(C)CCC2(C)C [bexarotene] | reduced |  |  |  |  |  |  |  |  |  | 
APOE3: recombinant human APOE3 added into the culture media |  | improved |  |  |  |  |  |  |  |  | 
phosphatidylserine [PS] |  |  | 631 | 267 | 14 | 2.4 | dose-dependent increases in pSYK levels |  |  |  | 
sulfatide |  |  | 704 | 191 | 20 | 5 | dose-dependent increases in pSYK levels | 6.8 | binds and signals via TREM2 | significantly increased pSYK levels | reduced to baseline levels
